The record followed here is PubChem BioAssay AID179 (DTP/NCI, 2004).

This experiment concerns CEM cells HIV-1 protection, formazan growth assay. The experiment can be described thus: NCI AIDS Antiviral Assay. The note with it: for IC50: measured here: growth of uninfected CEM cells. In short, it runs like this: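 Steps: treat uninfected and HIV-1-infected human CEM cells at five drug levels; quantify growth by soluble formazan; retest any compound reaching 50% protection; classify actives from the retest.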

“And” between values parts separate entries of the source, which are not always exact repeats. Equal entries are not always repeated. The source made the active and inactive calls.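 Rule for the calls: active = compounds giving half or more protection of infected cells from virus-caused growth loss, again on retest; inactive = the rest.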 Some results are limits rather than exact numbers.

In the case of `O=C1NCc2ccccc2S(=O)(=O)n2cccc21`, the EC50 is above 200 µM and the IC50 is 120 µM.
Turning to `CCc1cc(Cc2cc(CC)c(NC(=O)C(=O)CC(=O)c3sc(-c4cccnc4)nc3C)c(CC)c2)cc(CC)c1NC(=O)C(=O)CC(=O)c1sc(-c2cccnc2)nc1C`, the EC50 is above 105 µM and the IC50 is above 105 µM.
For `CC(C)N1C(C)[C@@H](c2ccccc2)O[P@@]1(=O)/C=C/C[C@H]1CC(=O)CCN1Cc1ccccc1` (stereo not given in full), the outcome was inactive.
In the case of `CCOC(=O)c1nc2cc(C(F)(F)F)ccc2nc1Nc1ccc(OC)c(OC)c1`, the result was inactive.
In the case of `CCCCc1nc(C)oc1C(C)C`, the EC50 is above 200 µM and the IC50 is above 200 µM.
On to `Cc1cccc(C)c1NC(=O)CCC(=O)NC(N)=S`, for which the EC50 was above 339 µM and the IC50 was above 339 µM.
For the molecule `Cc1cc(C(F)(F)F)nc2nc3ccccc3n12`, the EC50 is above 200 µM and the IC50 is above 200 µM.
Consider `O=Nc1sc(=S)n(N2CCCCC2)c1O`, for which the EC50 was above 200 µM and the IC50 was 105 µM.
The matching figures for `C[C@H](C/C=C/C(C)(C)O)[C@H]1CC[C@@]2(C)[C@@H]3CC[C@H]4C(C)(C)[C@@H](O)CC[C@@]45C[C@@]35CC[C@]12C`: above 200 µM and 4.68 µM.
Take `CC(=O)OCCCOCn1c(Cc2ccccc2)c(C(C)C)c(=O)[nH]c1=O`: the concentration giving a half-maximal response (EC50) is 0.0794 µM and the IC50 was 89.1 µM.
For the molecule `CCCCCCCCCCCCCCCC(=O)OC1C(O)C(O)C(O)C(O)C12CO2` (stereo not given), the EC50 was above 20 µM and the IC50 came to 7.08 µM.
Turning to `CC(C)(C)c1ccc(OC(=O)Nc2ccc(O)c(C(=O)O)c2)cc1`, the EC50 was above 200 µM and the IC50 was above 200 µM.
In the case of `NC(=Nc1ccccc1)C(F)(F)F`, the EC50 was above 200 µM and the IC50 is above 200 µM.
As to `O=CC(=C(I)I)c1ccccc1`, the EC50 was above 2 µM and the IC50 came out at 1.05 µM.
In the case of `COc1cc(NCc2ccc3nc(-c4ccccc4)c(N)nc3c2)cc(OC)c1OC`, the EC50 was above 200 µM and the IC50 is 49 µM.
Regarding `CC1(C)CC2=C(Sc3ccccc3N2)C(=O)C1C(=O)C(=O)Nc1cc(Cl)ccc1Cl` (stereo not given), the EC50 is above 148 µM and the IC50 worked out at 64.6 µM.
The matching figures for `Nc1nc(N)c(-c2ccc(Cl)cc2)c(CCC(=O)Nc2cccc(C(F)(F)F)c2)n1`: above 12 µM and above 12 µM.
On to `C[C@]12CCC3[C@@H](CC[C@@H]4c5nonc5CC[C@]34C)C1CC[C@@H]2O` (stereo not given in full), for which the EC50 was above 214 µM and the IC50 was above 214 µM.
With `N#CCCN(CCC#N)c1ccc(/C=C2/C=C(c3ccccc3)OC2=O)cc1`, the EC50 is above 14.1 µM and the IC50 was above 14.1 µM.
Turning to `Cc1cc2c(-c3ccccc3)cc(=O)[nH]c2cc1N`, the EC50 is 186 µM and the IC50 was above 200 µM.
In the case of `CCC1(c2ccccc2)C(=O)N=C(c2ccccc2)N1CCc1ccccc1` (stereo not given), the EC50 was above 200 µM and the IC50 is above 200 µM.
`COc1ccc(NC(=O)c2c(N)c(C#N)c3n2CCC3)cc1`: the EC50 was above 200 µM and the IC50 was above 200 µM.
Take `CCOP(=O)(OCC)/C(C#N)=C/c1ccco1`: the EC50 was 69.2 µM and the IC50 was above 200 µM.
The matching figures for `OC(c1ccc(C(F)(F)F)cc1)C(F)(F)c1nc2ccccc2o1` (stereo not given): above 200 µM and above 200 µM.
As to `COC(=O)c1nc(-c2ccc(Cl)c(Cl)c2)nc2ccc(Cl)cc12`, the outcome was inactive.
On to `c1scc2c1COCCOCCOCCOCCOCCOC2`, for which the EC50 is above 724 µM and the IC50 was 646 µM.
Consider `C#CCOCC12C=CC(O1)C1C(=O)N(C)C(=O)C12` (stereo not given), for which the EC50 is above 200 µM; the IC50 is 74.1 µM and 182 µM.
For the molecule `Cc1c(C#N)c2nnn(-c3ccccc3)c(=O)n2c1-c1ccccc1`, the EC50 was above 200 µM and the IC50 was determined as 1.02 µM.
`CC(C)N(CN1C(=O)N/C(=C/c2cccc(/C=C3/NC(=O)N(CN(C(C)C)C(C)C)C3=O)c2)C1=O)C(C)C`: the EC50 was above 501 µM and the IC50 turned out to be 75.9 µM.

What is called EC50 is the concentration needed to bring the measured effect to its halfway point. Usually IC50 stands for the concentration that inhibits the measured activity by half. A high value points to weaker potency in that assay.
